Results as given in patent US20100249121A1, “USE OF TETRAMIC ACID DERIVATIVES FOR C[…]-TR[…]” (priority 2007, published 2010).

How the values were obtained:
Type in all cases: in vivo
[1] = test system: Tomato Yellow Leaf Curl Virus (TYLCV), virus-transferring vector Bemisia argentifolii; experiment: Example 1: field plots of tomatoes treated against the vector, virus infestation scored; details: 72 g of a.i./ha, 200 SC, four applications at 7-day intervals, 25 days after the 4th treatment, TYLCV on tomatoes
Protocol: In three replications, plots of a size of 7.5 m^2 with tomatoes of the cultivar “Jumbo” are treated against the virus-transferring vector Bemisia argentifolii. Application is carried out using a motor-operated knapsack sprayer. The active compound example (I-2) (240 SC) in a tank mix with 0.186% a.i. soya oil Natur'L Oleo (OL 930) and the commercial standard imidacloprid (200 SC) are applied at the stated application rates. Four applications are carried out at intervals of in each case 7 days using a water application rate of in each case 300 l, 300 l, 500 l and 600 l/ha.
Evaluation is carried out 25 days after the 4th treatment by scoring the virus infestation with the Tomato Yellow Leaf Curl Virus (TYLCV) on the plants.
In the control, 11.7 of 15 plants were infected by the TYLCV.

[2] = test system: Tomato Yellow Leaf Curl Virus (TYLCV), virus-transferring vector Bemisia argentifolii; experiment: Example 2: field plots of tomatoes treated against the vector, virus infestation scored; details: 72 g of a.i./ha, 200 SC, three applications at 7-day intervals, 14 days after the 3rd treatment, TYLCV on tomatoes
Protocol: In three replications, plots of a size of 7.5 m^2 with tomatoes of the cultivar “Jumbo” are treated against the virus-transferring vector Bemisia argentifolii. Application is carried out using a pressurized air-operated knapsack sprayer. The active compound example (I-2) (240 SC) in a tank mix with 0.186% a.i. soya oil Natur'L Oleo (OL 930) and the commercial standard imidacloprid (200 SC) are applied at the stated application rates. Three applications are carried out at intervals of in each case 7 days. The water application rates are 300 l/ha, 400 l/ha and 600 l/ha.
Evaluation is carried out 14 days after the 3rd treatment by scoring the virus infestation with the Tomato Yellow Leaf Curl Virus (TYLCV) on the plants.
All 18 plants in the control were infected by the TYLCV.

[3] = test system: Bean Golden Mosaic Virus (BGMV), virus-transferring vector Bemisia argentifolii; experiment: Example 3: field plots of bush beans treated against the vector, virus infestation scored; details: 72 g of a.i./ha, 200 SC, three applications at 7-day intervals, 16 days after the first treatment, BGMV on bush beans
Protocol: In three replications, plots of a size of 12 m^2 with bush beans of the cultivar “Carioca” are treated against the virus-transferring vector Bemisia argentifolii. Application is carried out using a pressurized air-operated knapsack sprayer. The active compound example (I-2) (240 SC) in a tank mix with 0.186% a.i. soya oil Natur'L Oleo (OL 930) and the commercial standard imidacloprid (200 SC) are applied at the stated application rates. Three applications are carried out at intervals of in each case 7 days. The water application rate is in each case 300 l/ha.
Evaluation is carried out 16 days after the first treatment by scoring the virus infestation with the Bean Golden Mosaic Virus (BGMV) on the plants.
All 10 plants in the control were infected by the BGMV.

[4] = test system: Tomato Spotted Wilt Virus (TSWV); experiment: Example 4: field plots of tomatoes, tank mix versus single actives, virus infection scored; details: 72 g of a.i./ha, SC 200 on its own, four applications at 7-day intervals, 25 days after the treatment
Source text: The expected activity for a given combination of two active compounds can be calculated according to S. R. Colby, Weeds 15 (1967), 20-22 as follows:
If • X is the degree of control, expressed in % of the untreated control, when using the active compound A at an application rate of m g/ha or in a concentration of m ppm, • Y is the degree of control, expressed in % of the untreated control, when using the active compound B at an application rate of n g/ha or in a concentration of n ppm and • E is the degree of control, expressed in % of the untreated control, when using the active compounds A and B at application rates of m and n g/ha or in a concentration of m and n ppm, then
If the actual degree of control is greater than the calculated degree of control, the control of the combination is superadditive, i.e. a synergistic effect is present. In this case, the degree of control actually observed must be greater than the value for the expected kill rate (E) calculated using the formula given above.
After the desired period of time, the control in % is determined. 100% means that no plants have been infected by viruses; 0% means that all plants have been infected by viruses.
In three replications, plots of a size of 7.5 m^2 with tomatoes of the cultivar “Jumbo” are treated against the virus-transferring vector Bemisia argentifolii using a compressed air-operated sprayer. […]

## O=[N+]([O-])/N=C1\NCCN1Cc1ccc(Cl)nc1 [imidacloprid]
[1]
  Degree of control according to Abbott (%) 25 d: 40.0%
[2]
  Degree of control according to Abbott (%) 14 d: 33%
[3]
  Degree of control according to Abbott (%) 16 d: 60.0%
[4]
  Degree of control according to Abbott (%) 25 d: 80%
